# Test results as given in patent publication US20130338130A1 (priority 2009, published 2013).
# Values joined by “and” are separate entries in the source; they are usually repeats but may differ in a detail not shown here. Identical values can stand only once. Like-named read-outs stand apart in the source and are kept apart here.
# Tests used:
# [1] = tested on: ATCC strain 43300 Staphylococcus aureus; assay: MRSA survival in MSM and 6 μg/ml oxacillin or methicillin, 24, 48, 120 hours (Example 4)
# Experimental: The growth periods tested were 24 hours, 48 hours and 5 days.
# USP<51> Antimicrobial Effectiveness protocol was used as the template experimental paradigm. […] All concentrations were plated out to the 10^−7 dilutions to ascertain cfu/ml.
# Material was calculated on a 10 ml volume. Sterile oxacillin or methicillin was added to each experimental condition daily at 300 μl from a 30 mg/10 ml concentration giving it an initial final concentration of 6 μg/ml.
# All tubes were inoculated with a dilution of MRSA giving a final level of colony forming units of 2.13×10^6/ml (Log=6.3). The tubes were incubated at 25° C. and mixed periodically. Plating was done at 24 hours, 48 hours and 5 days. Each condition was plated by diluting 1 ml of growth material into 9 ml of MLB diluent broth. This mixture was serial diluted down to 10^−7, and 1 ml placed in a sterile petri dish at each dilution point. 20 mls of TSA was added to each dilution, swirled and allowed to solidify. All dilutions were placed in a 35° C. incubator for 24 hours. Bacterial colonies on each plate were counted and colony counts changed into log format. A positive and negative control was ascertained.
# [2] = tested on: ATCC strain 43300 Staphylococcus aureus; conditions: for survival (cfu/ml): triplicate platings
# Experimental: Additional antibiotic was added every 24 hours. The growth periods tested were 24 (FIG. 5), 48, 72, 96 and 120 hours.
# USP<51> Antimicrobial Effectiveness protocol was used as the template experimental paradigm. […] All concentrations were plated out to the 10^−7 dilutions to ascertain cfu/ml. […] Additional antibiotic was added at the initial concentration every 24 hours.
# ATCC strain 43300 Staphylococcus aureus was streaked out for isolations. An isolated colony was chosen, streaked again and incubated. Isolate was chosen and then diluted to a McFarland standard of one. The estimated value was then taken to inoculate tubes containing growth media and 12, 30 or 60 μg/ml methicillin with approximately 10^5 cfu/ml. These tubes were incubated and plated for counting cfu.
# Material was calculated on a 10 ml volume. Sterile methicillin was added to each experimental condition to a final concentration of 12, 30 or 60 μg/ml antibiotic. Lactose Broth positive controls both with and without the 12 μg/ml, 30 μg/ml, 60 μg/ml antibiotic were inoculated with MRSA. […] Tubes were set up in singlet, but plated in triplicate, as described below.
# All tubes were then inoculated with a dilution of the selected ATCC strain 43300 Staphylococcus aureus clone giving a final level of colony forming units of 1.49×10^5/ml (log=5.17). The tubes were incubated at 25° C. and mixed periodically. Antibiotic was re-inoculated every 24 hours at the initial concentration to maintain pressure on the organism. Plating was done at 24, 48, 72, and 120 hours. Each condition was plated by diluting 1 ml of growth material into 9 ml of MLB diluent broth. […] This mixture was serial diluted down to 10^−7 with 1 ml placed in triplicate in a sterile petri dish at each dilution point. 20 mls of TSA was added to each dilution, swirled and allowed to solidify. All dilutions were placed in a 35° C. incubator for 24 to 72 hours. Bacterial colonies on each plate were counted and the average taken then changed into log format. […] Graphs were recorded as log of 5.2 for TNTC to show comparison among the other data points.
# The tubes were spun down at 5000 rpm for 10 minutes. The supernatant was then decanted into 90 mls of Mueller-Hinton broth with 6 μg/ml methicillin. This is for enrichment and the recovery of any MRSA cells that may be present wether healthy or stressed. The pellet had 10 mls Mueller-Hinton broth with 6 μg/ml methicillin added to it to recover any cells that may be present. Both vessels were incubated at 35° C. for 48 hours and plated each 24 hours. Each vessel was plated at 10 dilutions to obtain a 1 cfu detection limit. Since all vessels were at a 1/10 dilution in the enrichment solution plating each vessel in this manner gave us a detection limit of 1 cfu/ml. […] This time point for graphing purposes will be reported as 0 logs.
# [3] = 6 μg/ml oxacillin + MSM (initial % in label), 48 hours, listed as 16% MSM
structure (smiles),measurement,setting,value
"CS(C)(=O)=O [MSM, Methylsulfonylmethane]",survival (Log cfu/ml),"[1]; 6 μg/ml oxacillin + MSM (initial % in label), 48 hours, listed as 8% MSM",3.60 Log cfu/ml
same,average log reduction in cfu/ml,[1]; [3],2.1 log
same,survival (Log cfu/ml),[1]; [3],4.17 Log cfu/ml
same,survival (Log cfu/ml),"[1]; 6 μg/ml oxacillin + MSM (initial % in label), 120 hours, listed as 5% MSM",TNTC
same,survival (Log cfu/ml),"[1]; 6 μg/ml oxacillin + MSM (initial % in label), 120 hours, listed as 8% MSM",TNTC
same,survival (Log cfu/ml),"[1]; 6 μg/ml oxacillin + MSM (initial % in label), 120 hours, listed as 10% MSM",TNTC
same,survival (Log cfu/ml),"[1]; 6 μg/ml oxacillin + MSM (initial % in label), 120 hours, listed as 12% MSM",TNTC
same,survival (Log cfu/ml),"[1]; 6 μg/ml oxacillin + MSM (initial % in label), 120 hours, listed as 13% MSM",TNTC
same,survival (Log cfu/ml),"[1]; 6 μg/ml oxacillin + MSM (initial % in label), 120 hours, listed as 14% MSM",3.00 Log cfu/ml
same,survival (Log cfu/ml),"[1]; 6 μg/ml oxacillin + MSM (initial % in label), 120 hours, listed as 15% MSM",3.00 Log cfu/ml
same,survival (Log cfu/ml),"[1]; 6 μg/ml oxacillin + MSM (initial % in label), 120 hours, listed as 16% MSM",3.00 Log cfu/ml
same,Log reduction in cfu/ml,"[1]; 6 μg/ml oxacillin + initial 14-16% MSM, 120 hours",~3.3 log
same,survival (cfu/ml),"[2]; 12 μg/ml methicillin (re-added every 24 hours) + MSM (% in label), 24 hours, inoculum 1.49×10^5/ml, listed as 5% MSM",7.8 × 10^2 cfu/ml and 8.0 × 10^2 cfu/ml and 8.2 × 10^2 cfu/ml
same,survival (cfu/ml),"[2]; 12 μg/ml methicillin (re-added every 24 hours) + MSM (% in label), 24 hours, inoculum 1.49×10^5/ml, listed as 6% MSM",4.0 × 10^2 cfu/ml and 4.4 × 10^2 cfu/ml and 4.5 × 10^2 cfu/ml
same,survival (cfu/ml),"[2]; 12 μg/ml methicillin (re-added every 24 hours) + MSM (% in label), 24 hours, inoculum 1.49×10^5/ml, listed as 7% MSM",4.4 × 10^2 cfu/ml and 5.0 × 10^2 cfu/ml
same,survival (cfu/ml),"[2]; 12 μg/ml methicillin (re-added every 24 hours) + MSM (% in label), 24 hours, inoculum 1.49×10^5/ml, listed as 8% MSM",9.6 × 10^2 cfu/ml and 9.5 × 10^2 cfu/ml and 9.3 × 10^2 cfu/ml
same,survival (cfu/ml),"[2]; 12 μg/ml methicillin (re-added every 24 hours) + MSM (% in label), 24 hours, inoculum 1.49×10^5/ml, listed as 9% MSM",9.0 × 10^2 cfu/ml and 9.4 × 10^2 cfu/ml and 9.2 × 10^2 cfu/ml
same,survival (cfu/ml),"[2]; 12 μg/ml methicillin (re-added every 24 hours) + MSM (% in label), 24 hours, inoculum 1.49×10^5/ml, listed as 10% MSM",1.4 × 10^3 cfu/ml
same,survival (cfu/ml),"[2]; 12 μg/ml methicillin (re-added every 24 hours) + MSM (% in label), 24 hours, inoculum 1.49×10^5/ml, listed as 11% MSM",2.2 × 10^3 cfu/ml and 2.3 × 10^3 cfu/ml
same,survival (cfu/ml),"[2]; 12 μg/ml methicillin (re-added every 24 hours) + MSM (% in label), 24 hours, inoculum 1.49×10^5/ml, listed as 12% MSM",2.9 × 10^3 cfu/ml and 3.0 × 10^3 cfu/ml and 2.8 × 10^3 cfu/ml
same,survival (cfu/ml),"[2]; 12 μg/ml methicillin (re-added every 24 hours) + MSM (% in label), 24 hours, inoculum 1.49×10^5/ml, listed as 13% MSM",3.3 × 10^3 cfu/ml and 3.5 × 10^3 cfu/ml and 3.4 × 10^3 cfu/ml
same,survival (cfu/ml),"[2]; 12 μg/ml methicillin (re-added every 24 hours) + MSM (% in label), 24 hours, inoculum 1.49×10^5/ml, listed as 14% MSM",8.8 × 10^3 cfu/ml and 8.5 × 10^3 cfu/ml and 8.2 × 10^3 cfu/ml
same,survival (cfu/ml),"[2]; 12 μg/ml methicillin (re-added every 24 hours) + MSM (% in label), 24 hours, inoculum 1.49×10^5/ml, listed as 15% MSM",6.4 × 10^3 cfu/ml and 6.6 × 10^3 cfu/ml and 6.5 × 10^3 cfu/ml
same,survival (cfu/ml),"[2]; 12 μg/ml methicillin (re-added every 24 hours) + MSM (% in label), 24 hours, inoculum 1.49×10^5/ml, listed as 16% MSM",1.01 × 10^3 cfu/ml and 1.03 × 10^3 cfu/ml and 1.04 × 10^3 cfu/ml
same,log reduction,"[2]; 12 μg/ml methicillin, 24 hours",2.2 log
same,log reduction in colony count,"[2]; 12 μg/ml methicillin, 48 hours",4.1 log
same,recovery after enrichment in Mueller-Hinton broth,"[2]; 12 μg/ml methicillin, 72 hours, detection limit 1 cfu/ml",true total kill
same,colony count,"[2]; 12 μg/ml methicillin, 96 hours",TNTC
same,recovery after enrichment in Mueller-Hinton broth,"[2]; 12 μg/ml methicillin, 96 hours, detection limit 1 cfu/ml",true total kill
same,colony count,"[2]; 12 μg/ml methicillin, 120 hours",TNTC
same,average log reduction in colony count,"[2]; 12 μg/ml methicillin, all MSM concentrations, 24 hours",1.5 logs
same,survival (cfu/ml),"[2]; 30 μg/ml methicillin + MSM (% in label), 24 hours, listed as 5% MSM",3.8 × 10^2 cfu/ml and 4.1 × 10^2 cfu/ml and 4.0 × 10^2 cfu/ml
same,survival (cfu/ml),"[2]; 30 μg/ml methicillin + MSM (% in label), 24 hours, listed as 6% MSM",2.2 × 10^2 cfu/ml and 2.5 × 10^2 cfu/ml
same,survival (cfu/ml),"[2]; 30 μg/ml methicillin + MSM (% in label), 24 hours, listed as 7% MSM",3.4 × 10^2 cfu/ml and 3.5 × 10^2 cfu/ml and 3.3 × 10^2 cfu/ml
same,survival (cfu/ml),"[2]; 30 μg/ml methicillin + MSM (% in label), 24 hours, listed as 8% MSM",9.4 × 10^2 cfu/ml and 9.6 × 10^2 cfu/ml
same,survival (cfu/ml),"[2]; 30 μg/ml methicillin + MSM (% in label), 24 hours, listed as 9% MSM",1.1 × 10^3 cfu/ml and 1.3 × 10^3 cfu/ml and 1.2 × 10^3 cfu/ml
same,survival (cfu/ml),"[2]; 30 μg/ml methicillin + MSM (% in label), 24 hours, listed as 10% MSM",1.2 × 10^3 cfu/ml and 1.3 × 10^3 cfu/ml and 1.1 × 10^3 cfu/ml
same,survival (cfu/ml),"[2]; 30 μg/ml methicillin + MSM (% in label), 24 hours, listed as 11% MSM",3.3 × 10^3 cfu/ml and 2.8 × 10^3 cfu/ml and 3.1 × 10^3 cfu/ml
same,survival (cfu/ml),"[2]; 30 μg/ml methicillin + MSM (% in label), 24 hours, listed as 12% MSM",3.3 × 10^3 cfu/ml
same,survival (cfu/ml),"[2]; 30 μg/ml methicillin + MSM (% in label), 24 hours, listed as 13% MSM",6.5 × 10^3 cfu/ml and 6.4 × 10^3 cfu/ml
same,survival (cfu/ml),"[2]; 30 μg/ml methicillin + MSM (% in label), 24 hours, listed as 14% MSM",6.3 × 10^3 cfu/ml and 6.7 × 10^3 cfu/ml and 6.9 × 10^3 cfu/ml
same,survival (cfu/ml),"[2]; 30 μg/ml methicillin + MSM (% in label), 24 hours, listed as 15% MSM",7.8 × 10^3 cfu/ml and 7.6 × 10^3 cfu/ml and 8.0 × 10^3 cfu/ml
same,survival (cfu/ml),"[2]; 30 μg/ml methicillin + MSM (% in label), 24 hours, listed as 16% MSM",9.6 × 10^3 cfu/ml and 9.8 × 10^3 cfu/ml and 9.7 × 10^3 cfu/ml
same,log reduction in colony count,"[2]; 30 μg/ml methicillin, 24 hours",2.8 log
same,recovery after enrichment in Mueller-Hinton broth,"[2]; 30 μg/ml methicillin, 120 hours, detection limit 1 cfu",true total kill
same,average log reduction,"[2]; 30 μg/ml methicillin, lower end of MSM concentrations, 24 hours",3 log
same,survival (cfu/ml),"[2]; 60 μg/ml methicillin + MSM (% in label), 24 hours, listed as 5% MSM",8.3 × 10^2 cfu/ml and 8.1 × 10^2 cfu/ml
same,survival (cfu/ml),"[2]; 60 μg/ml methicillin + MSM (% in label), 24 hours, listed as 6% MSM",4.2 × 10^2 cfu/ml and 4.8 × 10^2 cfu/ml
same,survival (cfu/ml),"[2]; 60 μg/ml methicillin + MSM (% in label), 24 hours, listed as 7% MSM",6.1 × 10^2 cfu/ml and 6.3 × 10^2 cfu/ml and 6.2 × 10^2 cfu/ml
same,survival (cfu/ml),"[2]; 60 μg/ml methicillin + MSM (% in label), 24 hours, listed as 8% MSM",9.4 × 10^2 cfu/ml and 9.8 × 10^2 cfu/ml and 9.7 × 10^2 cfu/ml
same,survival (cfu/ml),"[2]; 60 μg/ml methicillin + MSM (% in label), 24 hours, listed as 9% MSM",2.0 × 10^3 cfu/ml and 1.6 × 10^3 cfu/ml and 1.8 × 10^3 cfu/ml
same,survival (cfu/ml),"[2]; 60 μg/ml methicillin + MSM (% in label), 24 hours, listed as 10% MSM",2.2 × 10^3 cfu/ml and 2.1 × 10^3 cfu/ml and 2.0 × 10^3 cfu/ml
same,survival (cfu/ml),"[2]; 60 μg/ml methicillin + MSM (% in label), 24 hours, listed as 11% MSM",3.5 × 10^3 cfu/ml and 3.8 × 10^3 cfu/ml and 3.9 × 10^3 cfu/ml
same,survival (cfu/ml),"[2]; 60 μg/ml methicillin + MSM (% in label), 24 hours, listed as 12% MSM",4.5 × 10^3 cfu/ml and 4.1 × 10^3 cfu/ml and 4.7 × 10^3 cfu/ml
same,survival (cfu/ml),"[2]; 60 μg/ml methicillin + MSM (% in label), 24 hours, listed as 13% MSM",7.0 × 10^3 cfu/ml and 6.8 × 10^3 cfu/ml and 6.5 × 10^3 cfu/ml
same,survival (cfu/ml),"[2]; 60 μg/ml methicillin + MSM (% in label), 24 hours, listed as 14% MSM",8.3 × 10^3 cfu/ml and 8.8 × 10^3 cfu/ml and 8.5 × 10^3 cfu/ml
same,survival (cfu/ml),"[2]; 60 μg/ml methicillin + MSM (% in label), 24 hours, listed as 15% MSM",8.3 × 10^3 cfu/ml and 8.5 × 10^3 cfu/ml and 8.4 × 10^3 cfu/ml
same,survival (cfu/ml),"[2]; 60 μg/ml methicillin + MSM (% in label), 24 hours, listed as 16% MSM",8.4 × 10^3 cfu/ml and 8.5 × 10^3 cfu/ml
same,log reduction in colony count,"[2]; 60 μg/ml methicillin, 48 hours",4.1 log
same,recovery after enrichment in Mueller-Hinton broth,"[2]; 60 μg/ml methicillin, 72 hours, detection limit 1 cfu/ml",true total kill
same,colony count,"[2]; 60 μg/ml methicillin, 96 hours",TNTC
same,recovery after enrichment in Mueller-Hinton broth,"[2]; 60 μg/ml methicillin, 120 hours, detection limit 1 cfu",true total kill
same,growth,"[2]; positive 5%, 10%, and 16% MSM controls, no antibiotic, 24 hours","signs of turbid growth, was TNTC for all dilutions plated"
